Test results reported in patent US4264620A, “Antihypertensive 5-substituted 2-pyrrolidinecarboxylic acids” (Santen Pharmaceutical Co., Ltd., priority 1978, dated 1981).

What was measured:
[1] = test system: contractile response of isolated guinea-pig ileum to angiotensin I; experiment: Inhibition of contractile response of isolated guinea-pig ileum to angiotensin I (bioassay of angiotensin-converting enzyme inhibitory activity); details: angiotensin I 0.1 μg/ml, Tyrode's solution 30° C., compound added 5 minutes before, read-out: Angiotensin I IC50: concentration of compound producing 50% inhibition of the contractive action of angiotensin I on the guinea-pig ileum
From the text: As the method of measurement of angiotensin-converting enzyme activity, bioassay for the contractile response of isolated smooth muscle or the pressor response of normal animals and biochemical assay for the enzyme isolated from lung or other organs of animals are known. The former is found more advantageous than the latter for the examination of the convertion of angiotensin I to angiotensin II in vivo.
In the present study, therefore, we adopted the bioassay for contractile response of isolated guinea-pig ileum to angiotensin I.
(§1) Isolated guinea-pig ileum was suspended in the organ bath containing 20 ml of Tyrode's solution of 30° C. gassed with 95% O2 +5% CO2. The contraction induced by the addition of angiotensin I (0.1 μg/ml) at intervals of 10 minutes was recorded on a recticorder (Nihon Koden) for 90 seconds using FD pick up (ST-1T-H, Nihon Koden).
(§2) The test compounds were added to the bath 5 minutes before the addition of angiotensin I.
The inhibitory activity of angiotensin-converting enzyme was calculated by the following formula. [formula]

[2] = molecular target: T1, angiotensin-converting enzyme (Oryctolagus cuniculus, UniProt P12822); experiment: Inhibitory activity of angiotensin-converting enzyme extracted from rabbit lung (spectrophotometry, HHL substrate); assay type: biochemical; details: 5 mM HHL, pH 8.3, 37° C., 30 minutes, read-out: Angiotensin-converting enzyme IC50: concentration of compound producing 50% inhibition against angiotensin-converting enzyme
T1 construct: extracted from rabbit lung; from tissue; host or cells: rabbit lung
T1 sequence (P12822 34-1310): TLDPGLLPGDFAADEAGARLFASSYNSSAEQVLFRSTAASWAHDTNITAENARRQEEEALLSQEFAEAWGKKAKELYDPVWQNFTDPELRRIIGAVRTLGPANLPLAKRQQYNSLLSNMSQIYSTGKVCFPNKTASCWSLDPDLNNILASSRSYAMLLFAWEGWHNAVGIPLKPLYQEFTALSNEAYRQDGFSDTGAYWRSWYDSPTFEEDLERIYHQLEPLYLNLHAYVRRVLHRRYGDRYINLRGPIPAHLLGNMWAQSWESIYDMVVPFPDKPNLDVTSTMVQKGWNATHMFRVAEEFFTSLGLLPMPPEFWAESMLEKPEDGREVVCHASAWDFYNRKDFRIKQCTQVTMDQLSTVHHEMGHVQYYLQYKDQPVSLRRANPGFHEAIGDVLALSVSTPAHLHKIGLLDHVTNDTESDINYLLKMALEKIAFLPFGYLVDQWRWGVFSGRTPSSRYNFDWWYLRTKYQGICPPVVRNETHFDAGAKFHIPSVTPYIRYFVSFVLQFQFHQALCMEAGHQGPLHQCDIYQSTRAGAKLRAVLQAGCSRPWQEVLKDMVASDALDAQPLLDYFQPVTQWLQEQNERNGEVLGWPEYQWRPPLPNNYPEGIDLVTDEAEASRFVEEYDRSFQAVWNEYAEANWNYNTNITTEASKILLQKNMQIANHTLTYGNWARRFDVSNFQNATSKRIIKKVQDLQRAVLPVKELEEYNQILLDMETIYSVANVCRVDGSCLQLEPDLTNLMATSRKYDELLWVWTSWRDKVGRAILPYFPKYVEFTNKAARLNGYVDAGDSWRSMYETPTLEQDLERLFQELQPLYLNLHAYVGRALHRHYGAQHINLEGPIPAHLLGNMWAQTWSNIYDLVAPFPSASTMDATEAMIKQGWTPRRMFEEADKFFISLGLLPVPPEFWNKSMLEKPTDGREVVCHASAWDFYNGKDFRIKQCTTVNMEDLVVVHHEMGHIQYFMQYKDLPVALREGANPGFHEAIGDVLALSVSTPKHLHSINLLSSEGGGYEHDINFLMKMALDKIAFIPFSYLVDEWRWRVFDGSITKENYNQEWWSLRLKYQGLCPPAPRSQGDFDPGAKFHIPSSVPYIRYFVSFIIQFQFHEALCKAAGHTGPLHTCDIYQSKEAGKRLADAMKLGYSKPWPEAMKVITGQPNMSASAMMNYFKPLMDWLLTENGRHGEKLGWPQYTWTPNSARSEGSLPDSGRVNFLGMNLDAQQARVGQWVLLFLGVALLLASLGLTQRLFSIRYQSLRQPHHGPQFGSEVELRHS
Experimental: The activity of angiotensin-converting enzyme was measured by spectrophotometry according to the method of Biochem. Pharmacol., 20. 1637 (1971). That is, the absorbance of hippuric acid was measured, which is liberated by incubating hippuryl-L-histidyl-L-leucine (HHL) as substrate in the presence of angiotensin-converting enzyme extracted from rabbit lung. The reaction mixture is as follows: 100 mM phosphate buffer (pH 8.3) 300 mM sodium chloride 5 mM HHL […] enzyme inhibitor 5 mU enzyme 0.25 ml of the above mixture was incubated at 37° C. for 30 minutes and the reaction was stopped by adding 0.25 ml of 1 N hydrochloric acid. […] The absorbance of this solution was measured at 228 nm.

[3] = test system: contractile response to bradykinin; experiment: Augmentation of contractile response of isolated guinea-pig ileum to bradykinin; details: bradykinin 0.005 μg/ml, compound added 5 minutes before, read-out: Bradykinin AC50: concentration of compound producing 50% augmentation of the contractive action of bradykinin on the guinea-pig ileum
Experimental: as §1, §2
From the fact that kininase II, which destroys bradykinin having contractile action of isolated guinea-pig ileum, is thought to be identical with angiotensin-converting enzyme, augmentation of the contractile response to bradykinin by test compounds was examined by using bradykinin (0.005 μg/ml) in place of angiotensin I according to the above mentioned method.

Acute toxicity test = assay type: in vivo; details: mouse, in vivo, ip
Experimental: (§3) The male ddy-std strain mice (4 weeks of age, weighing 19-21 g) were placed in a breeding room of constant temperature and humidity (23±1° C., 55±5%) and fed freely pellet diet (CE-2, Clea Japan Inc.) and water ad. libitum for a week. The mice showing the normal growth were selected for the experiment.
(§4) Test compounds are suspended in 0.5% tragacanth solution, and administered intraperitoneally in a dose of 0.5 ml of 20 g body weight.

male ddy-std strain mice = experiment: Acute toxicity test; assay type: in vivo; details: male ddy-std mice, intraperitoneally
Experimental: as §3, §4

| Structure (SMILES) | IC50 [1] [µM] | IC50 [2] [µM] | AC50 [3] [µM] | LD50 (Acute toxicity test) [mg/kg] | Acute toxicity (result in words) (male ddy-std strain mice) |
| --- | --- | --- | --- | --- | --- |
| C[C@H](CS)C(=O)N1C(C(=O)O)CCC1c1ccccc1O (single isomer, unassigned) [Compound C] | 0.16 | 1.1 | 0.002 |  |  |
| O=C(O)C1CCC(c2ccccc2O)N1C(=O)CCS (stereo not drawn) [Compound A, α-5-(2-hydroxyphenyl)-1-(3-mercaptopropanoyl)-2-pyrrolidinecarboxylic acid] | 0.17 | 0.56 | 0.0018 | 1000 to 1250 | low |
| O=C(O)C1CCC(c2ccccc2O)N1C(=O)CCS (stereo not drawn) [Compound E, α1-5-(2-hydroxyphenyl)-1-(3-mercaptopropanoyl)-2-pyrrolidinecarboxylic acid] | 0.076 | 0.065 | 0.00095 |  |  |
| C[C@H](CS)C(=O)N1CSC[C@H]1C(=O)O [Compound Z, (4R)-3-[(2S)-3-mercapto-2-methylpropanoyl]-4-thiazolidinecarboxylic acid, reference compound] | 0.17 |  | 0.0026 |  |  |

Continued, in another order:

| IC50 [1] [µM] | IC50 [2] [µM] | Structure (SMILES) | AC50 [3] [µM] | LD50 (Acute toxicity test) [mg/kg] | Acute toxicity (result in words) (male ddy-std strain mice) |
| --- | --- | --- | --- | --- | --- |
| 0.15 | 1.2 | C[C@H](CS)C(=O)N1C(C(=O)O)CCC1c1ccccc1O (single isomer, unassigned) [Compound D] | 0.0026 |  |  |
| 0.48 | 0.44 | O=C(O)C1CCC(c2ccc(O)cc2)N1C(=O)CCS (stereo not drawn) [Compound B, α-5-(4-hydroxyphenyl)-1-(3-mercaptopropanoyl)-2-pyrrolidinecarboxylic acid] | 0.0098 |  |  |
